From patent US20160000762A1, “IMPROVING COGNITIVE FUNCTION” (THE REGENTS OF THE UNIVERSITY OF CALIFORNIA, priority 2013, published 2016) come the findings set out here.

The test system of one assay is SC and TA inputs to CA1. Description: Field potential recordings and LTP, acute hippocampal slices of injected mice. In kind it is in vivo, wild-type mice. The procedure: Electrophysiology. Transverse [for Schaffer collateral (SC) input studies] or horizontal [for temporammonic (TA) input studies] hippocampal slices (400-μm thick) were prepared from adult mice. Slices were made using ice-cold dissection buffer (in mM: 212.7 sucrose, 2.6KCl, 1.23NaH2PO4, 10 dextrose, 3MgCl2 and 1CaCl2; 5% CO2/95% O2), and recordings were done in a submersion-type chamber perfused with artificial cerebrospinal fluid (ACSF, in mM: 124NaCl, 5KCl, 1.25NaH2PO4, 26NaHCO3, 10 dextrose, 1.5MgCl2, and 2.5CaCl2; 5% CO2/95% O2, 29.5-30.5° C., 2 ml/min). For field potential recordings, synaptic responses were evoked using 0.2 ms duration pulses delivered through a bipolar glass stimulating electrode at 0.0333 Hz. A train of TBS consisted of a burst of 4 pulses at 100 Hz repeated 10 times at 5 Hz. For 4× TBS, 4 trains of TBS were given at 10 sec inter-train-intervals. For whole cell recordings, slices were transferred to a submersion-type recording chamber mounted on a fixed stage of an upright microscope (E600 FN; Nikon, Tokyo, Japan) with IR oblique illumination. […]. These neurons were patched using a whole cell patch pipette (tip resistance 3-5 MΩ), which was filled with internal solution (in mM: 120 Cs-methanesulfonate, 5MgCl2, 8NaCl, 1 EGTA, 10 HEPES, 2 Mg.ATP, 0.5Na3GTP and 1 QX-314; pH 7.3, 280-290 mOsm). Recording was initiated 2-3 min after break-in, and each cell was recorded for 10-15 min to collect enough mEPSCs for analysis. The Axon patch-clamp amplifier 700B (Molecular Devices, Union City, Calif.) was used for voltage-clamp recordings. Cells were held at −70 mV, and the recorded mEPSC data were digitized at 10 kHz with a data acquisition board (National Instruments, Austin, Tex.) and acquired through custom-made programs using the Igor Pro software (WaveMetrics, Lake Oswego, Oreg.). The MiniAnalysis program (Synaptosoft, Decatur, Ga.) was used to analyze the acquired mEPSCs. The threshold for detecting mEPSCs was set at three times the root mean square (RMS) noise. […] Recordings were excluded from analysis if the RMS noise was <2, the series resistance was […], and input resistance was >100 MΩ. To minimize the impact of dendritic filtering, we adopted the standard approach of excluding mEPSCs with rise time >3 ms, as well as cells showing a negative correlation between mEPSC amplitude and rise time (Rall, 1969). Only about 4% of the total recorded cells (at most 1 cell per experimental group) were excluded due to negative correlation between mEPSC rise and amplitude. One hundred consecutive mEPSCs that met the rise time criteria were analyzed from each cell. AMPAR- and NMDAR-mediated currents were measured at −70 and +40 mV, respectively. AMPAR mediated EPSC amplitudes were measured at the peak of the current at −70 mV. NMDAR mediated EPSC amplitudes were measured 100 ms after the stimulation artifact. Data are means±SE. Student's t-test was used for two-group comparisons. For all statistical tests, P<0.05 was considered statistically significant.
Therefore, we examined whether improved cognitive performance following BTA-EG4 treatment is associated with altered synaptic function and plasticity. We conducted electrophysiology experiments in an acute hippocampal slice preparation from wild-type mice injected with BTA-EG4 (30 mg/kg, i.p.) or control solution (10% DMSO, i.p) for 2 weeks. […] Long-term potentiation (LTP) was either normal or reduced, depending on the induction protocol (FIGS. 3C-3D). […] There was also not a change in presynaptic function (FIG. 3I).

Assay [1] relates to primary hippocampal neurons. As to the kind of experiment: Dendritic spine density in transfected primary hippocampal neurons. In kind it is cell-based, Sprague-Dawley rats. The settings on record: 5 μM. The procedure:
Primary neuron culture and immunostaining. Primary hippocampal neurons from E19 Sprague-Dawley rats were cultured at 150 cells/mm^2 as previously described (Pak et al., 2001). Neurons were transfected using Lipofectamine™ 2000 (Invitrogen, Carlsbad, Calif., USA) or calcium phosphate precipitation with GFP+PLL, GFP+APP shRNA, or GFP+APP and treated with BTA-EG4. The following antibodies were used: mouse anti-GFP (Novus Biologicals, 9F9.F9), rabbit anti-GFP (Invitrogen, A11122), rabbit anti-GluR1 (Calbiochem, PC246), mouse anti-GluR2 (BD Pharmagen, 556341), mouse anti-postsynaptic density (PSD)-95 (NeuroMabs, Davis, Calif., USA), mouse anti-Synaptophysin (Sigma Aldrich, s5768), rabbit APP N-terminal (Sigma-Aldrich, A8967), anti-Ras (BD Biosciences, 610001), anti-RasGRF1 (Santa Cruz, C-20; BD Biosciences, 610149), anti-ERK1/2 (Cell Signaling, 4695), anti-p-ERK1/2 (Invitrogen, 36880), anti-CREB (Cell Signaling, D76D11), anti-p-CREB (Millipore, 06-519), and mouse anti-c-Myc (Novus Biologicals, 9E10). Cultured hippocampal neuron images were acquired by LSM 510 laser scanning confocal microscope (Zeiss). Confocal zseries image stacks encompassing entire dendrite segments were analyzed using MetaMorph software (Universal Imaging Corporation, Downington, Pa., USA).
To examine whether BTA-EG4 acts through APP to increase dendritic spine density, we acutely knocked down APP using shRNA in primary hippocampal neurons. APP shRNA was cotransfected with GFP to visualize dendritic spines, and control cultures were transfected with GFP and PLL (control vector for shRNA construct). We then treated both cultures with BTA-EG4 (5 μM) or vehicle. […] To confirm this finding in vivo, we examined the effect of BTA-EG4 on dendritic spine density in APP knockout (KO) mice. APP-KO mice were injected with BTA-EG4 (30 mg/kg) or vehicle for 2 weeks, and Golgi analysis was conducted on hippocampal CA1 neurons.
To examine whether the effect of BTA-EG4 on dendritic spine formation is Ras dependent, primary hippocampal neurons were transfected with GFP and RasGRF1 shRNA, or GFP and PLL. After 24 h, we treated with BTA-EG4 (5 μM) or control for another 24 h, and spine density was measured using immunofluorescence. […] After 24 h, we then treated neurons with BTA-EG4 (5 μM) or control for 24 h, and spine density was measured. Ras-WT alone or combined with BTA-EG4 increased dendritic spine density compared with control (FIGS. 7K, 7L).

Setting [2] is: SC inputs to CA1, 30 mg/kg i.p., 2 weeks.

For BTA-EG4, in the assay with SC and TA inputs to CA1 (SC inputs to CA1), the “summation of synaptic responses during the LTP induction protocol” value was “reduced”. The “magnitude of LTP” value is reported as “No difference” in the assay with SC and TA inputs to CA1 (SC inputs to CA1, induced by 1× TBS); “reduction” in the assay on SC and TA inputs to CA1 (SC inputs to CA1, induced by 4× TBS). In the assay on SC and TA inputs to CA1 (setting [2]), the basal synaptic transmission result is on record as “did not alter”. Further, the presynaptic function result in the assay on SC and TA inputs to CA1 (setting [2]) is “did not alter”; in the assay on SC and TA inputs to CA1 (TA inputs to CA1), “not a change”. The “response summation during the induction protocol” value with SC and TA inputs to CA1 (TA inputs to CA1) was “absence of a change”. Besides, the “synaptic transmission normalized to presynaptic fiber volley amplitude” value in the assay on SC and TA inputs to CA1 (TA inputs to CA1) is reported as “no difference”. The TA-LTP in the assay with SC and TA inputs to CA1 (TA inputs to CA1, at 1 h post-LTP, CTRL 120±2.1%) is 109±1.2%. The “ability to recruit presynaptic axons per stimulation intensity” value in the assay on SC and TA inputs to CA1 (TA inputs to CA1, 30 mg/kg i.p.) was “reduced”. Further, the dendritic spine density entry in assay [1] (24 h, GFP and PLL control vector) is on record as “significantly increased”; in assay [1] (24 h, RasGRF1 knockdown) it was “prevented the effect”; in assay [1] (24 h, combined with Ras-WT, vs control), “increased”; in assay [1] (24 h, in the presence of RasN17), “could no longer increase”; in assay [1] (knockdown of APP (APP shRNA)), “prevented the increase”.
